# Source: US20090104145A1, “Mixtures of Anthranilamide Invertebrate Pest Control Agents” (priority 2004, published 2009)
# What was measured:
# Assay in all cases: whole plant or invertebrate
# Assay type in all cases: in vivo
# [1] = test system: diamondback moth (Plutella xylostella); settings: for mortality at 10 ppm: rate 10 ppm; for mortality at 2 ppm: rate 2 ppm; for mortality at 0.08 ppm: rate 0.08 ppm; for mortality at 0.4 ppm: rate 0.4 ppm
# Method: (§1) The pest control protection afforded by the mixtures or compositions is not limited, however, to these species. The analysis of synergism or antagonism between the mixtures or compositions was determined using Colby's equation. The average % mortality data for the test compounds alone were inserted into the Colby's equation. If the observed average % mortality was higher than “p”, the expected % mortality, the mixture or composition had synergistic effects. If the observed average % mortality was equal to or lower than the expected mortality, the mixture or composition either had no synergistic effect or an antagonistic effect. In these tests, Compound 1 is the compound of Formula 1.
# For evaluating control of diamondback moth (Plutella xylostella), cabbage (var. Stonehead) plants were grown in Metromix potting soil in 10-cm pots in aluminum trays to test size (28 days, 3-4 full leaves) the plants were sprayed to the point of runoff using the turntable sprayer as described in Test I. Test compounds were formulated and sprayed on test plants as described for Test I. After drying for 2 hours, the treated leaves were excised and infested with one cabbage looper per cell and covered. The test units were placed on trays and put in a growth chamber at 25° C. and 60% relative humidity for 4 days.
# [2] = test system: silverleaf whitefly (Bemisia argentifolii Bellows and Perring); settings: for % mortality (obs): Table 2B, compound alone
# Method: as §1
# For evaluating control of silverleaf whitefly (Bemisia argentifolii Bellows and Perring) through contact and/or systemic means, each test unit consisted of a small open container with a 12- to 14-day-old cotton plant inside. This was pre-infested by placing test units into cages infested with adult whiteflies so that oviposition on the cotton leaves could occur. The adults were removed from the plants with an air-blast nozzle, and the test units were capped. The test units were then stored 2 to 3 days before spraying.
# (§2) Test compounds were formulated using a solution containing 10% acetone, 90% water and 300 ppm X-77® Spreader Lo-Foam Formula non-ionic surfactant containing alkylarylpolyoxyethylene, free fatty acids, glycols and isopropanol (Loveland Industries, Inc.) to provide the desired concentration in ppm. Formulated test solutions were then applied in 1 mL volumes through a SUJ2 atomizer nozzle with ⅛ JJ custom body (Spraying Systems Co.) positioned 1.27 cm (0.5 inches) above the top of each test unit.
# The results for all experimental compositions in this test were replicated three times. After spraying of the formulated test composition, each test unit was allowed to dry for 1 hour and the cap removed. The test units were held for 13 days in a growth chamber at 28° C. and 50-70% relative humidity.
# [3] = test system: western flower thrip (Frankliniella occidentalis Pergande)
# Method: as §1, §2
# For evaluating control of the western flower thrip (Frankliniella occidentalis Pergande) through contact and/or systemic means, each test unit consisted of a small open container with a 5- to 7-day-old bean (var. Soleil) plant inside.
# Test solutions were formulated and sprayed with 3 replications as described for Test A. After spraying, the test units were allowed to dry for 1 hour, 22 to 27 adult thrips were added to each unit and then a black, screened cap was placed on top. The test units were held for 7 days at 25° C. and 45-55% relative humidity.
# [4] = test system: cotton melon aphid (Aphis gossypii Glover)
# Method: as §1, §2
# For evaluating control of cotton melon aphid (Aphis gossypii Glover) through contact and/or systemic means, each test unit consisted of a small open container with a 6- to 7-day-old cotton plant inside. This was pre-infested by placing on a leaf of the test plant 30 to 40 aphids on a piece of leaf excised from a culture plant (cut-leaf method). The larvae moved onto the test plant as the leaf piece desiccated. After pre-infestation, the soil of the test unit was covered with a layer of sand.
# Test compounds were formulated and sprayed as described for Test A. The applications were replicated three times. After spraying of the formulated test compounds, each test unit was allowed to dry for 1 hour and then a black, screened cap was placed on top. The test units were held for 6 days in a growth chamber at 19-21° C. and 50-70% relative humidity.
# [5] = test system: green peach aphid (Myzus persicae Sulzer)
# Method: as §1, §2
# For evaluating control of green peach aphid (Myzus persicae Sulzer) through contact and/or systemic means, each test unit consisted of a small open container with a 12- to 15-day-old radish plant inside. This was pre-infested by placing on a leaf of the test plant 30 to 40 aphids on a piece of leaf excised from a culture plant (cut-leaf method). The larvae moved onto the test plant as the leaf piece desiccated. After pre-infestation, the soil of the test unit was covered with a layer of sand.
# Test compounds were formulated and sprayed as described in Test A, replicated three times. After spraying of the formulated test compound, each test unit was allowed to dry for 1 hour and then a black, screened cap was placed on top. The test units were held for 6 days in a growth chamber at 19-21° C. and 50-70% relative humidity.
# [6] = Plutella xylostella, in Brassica oleracea, read-out: % mortality (obs)
# [7] = Plutella xylostella, in Brassica oleracea, rate 1000 ppm, read-out: % mortality (obs)
# [8] = Plutella xylostella, in Brassica oleracea, rate 100 ppm, read-out: % mortality (obs)
# [9] = Plutella xylostella, in Brassica oleracea, rate 1 ppm, read-out: % mortality (obs)
compound,measurement,setting,value
"Cc1ccc(/N=C/N(C)/C=N/c2ccc(C)cc2C)c(C)c1 [Amitraz, amitraz]",% mortality,[1]; rate 10,70%
same,% mortality,[1]; rate 100,20%
same,% mortality,[1]; rate 1000,50%
"CC(C)N1C(=O)N(c2ccccc2)CS/C1=N\C(C)(C)C [Buprofezin, buprofezin]",mortality at 10 ppm,[1]; [6],30%
same,mortality at 1000 ppm,[1]; [7],60%
"CCOP(=S)(OCC)Oc1nc(Cl)c(Cl)cc1Cl [Chlorpyrifos, chlorpyrifos]",mortality at 10 ppm,[1]; [6],80%
same,mortality at 100 ppm,[1]; [8],40%
same,mortality at 1000 ppm,[1]; [7],50%
CNC(=O)c1cc(C#N)cc(C)c1NC(=O)c1cc(Br)nn1-c1ncccc1Cl [Compund 1],% mortality (obs),[2]; rate 7 ppm,30%
same,% mortality (obs),[2]; rate 9 ppm,53%
same,% mortality (obs),[2]; rate 12 ppm,71%
"Nc1nc(N)nc(NC2CC2)n1 [Cyromazine, cyromazine]",mortality at 20 ppm,"[1]; Plutella xylostella, in Brassica oleracea, rate 20 ppm, read-out: % mortality (obs)",60%
same,mortality at 40 ppm,"[1]; Plutella xylostella, in Brassica oleracea, rate 40 ppm, read-out: % mortality (obs)",90%
same,mortality at 60 ppm,"[1]; Plutella xylostella, in Brassica oleracea, rate 60 ppm, read-out: % mortality (obs)",80%
"CC1(C)[C@H](C(=O)O[C@H](C#N)c2cccc(Oc3ccccc3)c2)[C@@H]1C=C(Br)Br [Deltamethrin, deltamethrin]",mortality at 0.1 ppm,"[1]; Plutella xylostella, in Brassica oleracea, rate 0.1 ppm, read-out: % mortality (obs)",90%
same,mortality at 0.3 ppm,"[1]; Plutella xylostella, in Brassica oleracea, rate 0.3 ppm, read-out: % mortality (obs)",90%
same,mortality at 1 ppm,[1]; [9],90%
"CCOC(=O)NCCOc1ccc(Oc2ccccc2)cc1 [Fenoxycarb, fenoxycarb]",mortality at 10 ppm,[1]; [6],90%
same,mortality at 100 ppm,[1]; [8],90%
same,mortality at 1000 ppm,[1]; [7],90%
"N#CCNC(=O)c1cnccc1C(F)(F)F [Flonicamid, flonicamid]",% mortality,[1]; rate 1,0%
same,% mortality,[1]; rate 15,60%
same,% mortality,[1]; rate 1000,30%
"O=C(NC(=O)c1c(F)cccc1F)Nc1cc(Cl)c(OC(F)(F)C(F)F)c(Cl)c1 [Hexaflumuron, hexaflumuron]",mortality at 10 ppm,"[3]; Frankliniella occidentalis, rate 10 ppm, read-out: % mortality (obs)",20%
same,mortality at 3000 ppm,"[3]; Frankliniella occidentalis, rate 3000 ppm, read-out: % mortality (obs)",60%
same,mortality at 0.5 ppm,"[1]; Plutella xylostella, in Brassica oleracea, rate 0.5 ppm, read-out: % mortality (obs)",70%
same,mortality at 1 ppm,[1]; [9],30%
same,mortality at 2 ppm,[1]; [6],70%
"CC1(C)CNC(=NN=C(/C=C/c2ccc(C(F)(F)F)cc2)/C=C/c2ccc(C(F)(F)F)cc2)NC1 [Hydramethylnon, hydramethylnon]",mortality at 0.01 ppm,"[1]; Plutella xylostella, in Brassica oleracea, rate 0.01 ppm, read-out: % mortality (obs)",70%
same,mortality at 0.05 ppm,"[1]; Plutella xylostella, in Brassica oleracea, rate 0.05 ppm, read-out: % mortality (obs)",50%
same,mortality at 0.2 ppm,"[1]; Plutella xylostella, in Brassica oleracea, rate 0.2 ppm, read-out: % mortality (obs)",60%
"COC(=O)N(C(=O)N1CO[C@@]2(C(=O)OC)Cc3cc(Cl)ccc3C2=N1)c1ccc(OC(F)(F)F)cc1 [Indoxacarb, indoxacarb]",% mortality (obs),[1]; rate 0.02 ppm,80%
same,% mortality (obs),[1]; rate 0.05 ppm,40%
"O=C(NC(=O)c1c(F)cccc1F)Nc1cc(Cl)c(OC(F)(F)C(F)C(F)(F)F)cc1Cl (centres unmarked) [Lufenuron, lufenuron]",mortality at 0.08 ppm,[1]; [6],80%
same,mortality at 0.4 ppm,[1]; [6],80%
same,mortality at 2 ppm,[1]; [6],90%
"CNC(=O)ON=C(C)SC [Methomyl, methomyl]",% mortality,[1]; rate 30,80%
same,% mortality,[1]; rate 40,90%
same,% mortality,[1]; rate 50,80%
"COc1cccc(C(=O)NN(C(=O)c2cc(C)cc(C)c2)C(C)(C)C)c1C [Methoxyfenozide, methoxyfenozide]",mortality at 0.08 ppm,[1]; [6],90%
same,mortality at 0.4 ppm,[1]; [6],90%
same,mortality at 2 ppm,[1]; [6],90%
same,mortality at 5 ppm,"[4]; Aphis gossypii, rate 5 ppm, read-out: % mortality (obs)",22%
same,mortality at 50 ppm,"[4]; Aphis gossypii, rate 50 ppm, read-out: % mortality (obs)",20%
same,mortality at 500 ppm,"[4]; Aphis gossypii, rate 500 ppm, read-out: % mortality (obs)",26%
"CCN(Cc1ccc(Cl)nc1)/C(=C/[N+](=O)[O-])NC [Nitenpyram, nitenpyram]",% mortality (obs),[1]; rate 30 ppm,90%
same,% mortality (obs),[1]; rate 150 ppm,90%
"CNC(=O)O/N=C(\SC)C(=O)N(C)C [Oxamyl, oxamyl]",% mortality (obs),[1]; rate 1 ppm,60%
"CCc1ccc(C(=O)NN(C(=O)c2cc(C)cc(C)c2)C(C)(C)C)cc1 [Tebufenozide, tebufenozide]",mortality at 150 ppm,"[1]; Plutella xylostella, in Brassica oleracea, rate 150 ppm, read-out: % mortality (obs)",90%
same,mortality at 200 ppm,"[1]; Plutella xylostella, in Brassica oleracea, rate 200 ppm, read-out: % mortality (obs)",90%
same,mortality at 300 ppm,"[1]; Plutella xylostella, in Brassica oleracea, rate 300 ppm, read-out: % mortality (obs)",90%
"CS/C(C)=N\OC(=O)N(C)SN(C)C(=O)O/N=C(\C)SC [Thiodicarb, thiodicarb]",% mortality (obs),[1]; rate 100 ppm,90%
same,% mortality (obs),[1]; rate 1000 ppm,90%
same,% mortality (obs),[1]; rate 3000 ppm,90%
dieldrin,% mortality,[1]; rate 2,90%
same,% mortality,[1]; rate 2.5,100%
same,% mortality,[1]; rate 3,100%
pyridaben,% mortality,[1]; rate 100,100%
same,% mortality,[1]; rate 150,80%
same,% mortality,[1]; rate 200,100%
spinosad,% mortality,[1]; rate 10,100%
same,% mortality,[1]; rate 100,90%
same,% mortality,[1]; rate 1000,100%
thiamethoxam,% Mortality (observed),[5]; 0.2 ppm,23%
same,% Mortality (observed),[5]; 0.3 ppm,23%
same,% Mortality (observed),[5]; 0.5 ppm,93%
same,% Mortality (observed),[3]; Thiamethoxam 1 ppm alone,33%
same,% Mortality (observed),[3]; Thiamethoxam 5.5 ppm alone,43%
same,% Mortality (observed),[3]; Thiamethoxam 29 ppm alone,43%
same,% mortality,[1]; rate 30,90%
same,% mortality,[1]; rate 40,100%
same,% mortality,[1]; rate 50,100%
same,% Mortality (observed),[2]; Thiamethoxam 15 ppm alone,53%
same,% Mortality (observed),[2]; Thiamethoxam 26 ppm alone,65%
same,% Mortality (observed),[4]; Thiamethoxam 0.5 ppm,22%
same,% Mortality (observed),[4]; Thiamethoxam 0.8 ppm,83%
same,% Mortality (observed),[4]; Thiamethoxam 1 ppm,91%
